Measurements reported in ChEMBL document CHEMBL1201862, “PubChem BioAssay data set” (2004).
Active and inactive are the calls of the source.

Columns and labels:
[1] = biological target: Tyrosine-protein kinase BTK (Homo sapiens, UniProt Q06187); type: functional
[2] = alpha-synuclein stem-loop luciferase translation blockers – H4 neuroglioma cells, luminescence, confirmation (AID 1988); type: functional, cell-based
[3] = fluconazole-exposed Candida albicans growth modulators – fluorescence, retest, confirmation (AID 2467); type: functional, cell-based
[4] = biological target: T1, Exodeoxyribonuclease V (Escherichia coli (strain K12), UniProt P04993+P07648+P08394); assay: RecBCD inhibition via phage-restricted bacterial growth – absorbance, V66 E. coli, mutant T4 phage, counter-screen for AddAB inhibitor project, dose response (AID 492957); type: functional, cell-based, Escherichia coli str. K-12 substr. MG1655
T1 sequence (P04993 whole entry): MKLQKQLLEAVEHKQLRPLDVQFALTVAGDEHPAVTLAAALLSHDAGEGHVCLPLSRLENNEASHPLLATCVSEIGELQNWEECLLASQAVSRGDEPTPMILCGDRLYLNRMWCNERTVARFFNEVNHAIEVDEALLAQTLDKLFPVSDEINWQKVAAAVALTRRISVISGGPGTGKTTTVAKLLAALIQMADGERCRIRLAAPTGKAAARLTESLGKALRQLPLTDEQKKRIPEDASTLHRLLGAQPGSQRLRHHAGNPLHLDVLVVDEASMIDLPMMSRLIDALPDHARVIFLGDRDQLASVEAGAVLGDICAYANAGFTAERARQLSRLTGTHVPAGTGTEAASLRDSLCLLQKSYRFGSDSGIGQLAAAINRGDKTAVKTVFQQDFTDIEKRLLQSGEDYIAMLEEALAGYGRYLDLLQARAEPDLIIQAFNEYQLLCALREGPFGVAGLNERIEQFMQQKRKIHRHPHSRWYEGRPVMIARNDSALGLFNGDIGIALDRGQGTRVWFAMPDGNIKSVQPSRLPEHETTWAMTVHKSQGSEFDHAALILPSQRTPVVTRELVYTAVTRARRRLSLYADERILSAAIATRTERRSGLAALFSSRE
T1 sequence (P07648 whole entry): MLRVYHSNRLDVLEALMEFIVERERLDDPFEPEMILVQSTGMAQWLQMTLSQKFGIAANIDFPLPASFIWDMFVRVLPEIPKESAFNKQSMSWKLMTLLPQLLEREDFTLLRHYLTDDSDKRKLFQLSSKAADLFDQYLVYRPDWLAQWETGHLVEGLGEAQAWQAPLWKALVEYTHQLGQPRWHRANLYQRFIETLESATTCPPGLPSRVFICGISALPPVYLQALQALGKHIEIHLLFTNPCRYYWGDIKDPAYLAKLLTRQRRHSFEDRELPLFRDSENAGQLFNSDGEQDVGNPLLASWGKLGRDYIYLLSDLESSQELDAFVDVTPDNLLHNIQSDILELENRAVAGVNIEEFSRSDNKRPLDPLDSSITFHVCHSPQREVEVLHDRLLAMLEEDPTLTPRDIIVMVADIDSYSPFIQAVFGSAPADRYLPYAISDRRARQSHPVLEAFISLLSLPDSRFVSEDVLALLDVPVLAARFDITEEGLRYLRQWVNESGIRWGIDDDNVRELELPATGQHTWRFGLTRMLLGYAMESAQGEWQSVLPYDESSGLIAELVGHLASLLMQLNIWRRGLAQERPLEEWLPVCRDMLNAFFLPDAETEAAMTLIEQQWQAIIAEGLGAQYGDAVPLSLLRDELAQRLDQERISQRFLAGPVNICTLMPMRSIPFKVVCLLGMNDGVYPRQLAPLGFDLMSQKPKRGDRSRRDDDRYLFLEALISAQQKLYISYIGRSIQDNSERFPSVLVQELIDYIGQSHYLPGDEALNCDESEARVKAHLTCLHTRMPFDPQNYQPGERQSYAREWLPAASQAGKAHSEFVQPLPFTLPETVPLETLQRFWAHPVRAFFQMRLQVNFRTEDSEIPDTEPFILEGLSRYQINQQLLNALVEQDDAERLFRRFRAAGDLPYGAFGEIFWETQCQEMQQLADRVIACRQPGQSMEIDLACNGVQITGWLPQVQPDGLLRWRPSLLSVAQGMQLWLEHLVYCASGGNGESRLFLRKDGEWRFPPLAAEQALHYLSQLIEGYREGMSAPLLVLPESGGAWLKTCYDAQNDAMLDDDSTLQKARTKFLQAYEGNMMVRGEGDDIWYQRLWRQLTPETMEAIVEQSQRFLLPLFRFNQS
T1 sequence (P08394 whole entry): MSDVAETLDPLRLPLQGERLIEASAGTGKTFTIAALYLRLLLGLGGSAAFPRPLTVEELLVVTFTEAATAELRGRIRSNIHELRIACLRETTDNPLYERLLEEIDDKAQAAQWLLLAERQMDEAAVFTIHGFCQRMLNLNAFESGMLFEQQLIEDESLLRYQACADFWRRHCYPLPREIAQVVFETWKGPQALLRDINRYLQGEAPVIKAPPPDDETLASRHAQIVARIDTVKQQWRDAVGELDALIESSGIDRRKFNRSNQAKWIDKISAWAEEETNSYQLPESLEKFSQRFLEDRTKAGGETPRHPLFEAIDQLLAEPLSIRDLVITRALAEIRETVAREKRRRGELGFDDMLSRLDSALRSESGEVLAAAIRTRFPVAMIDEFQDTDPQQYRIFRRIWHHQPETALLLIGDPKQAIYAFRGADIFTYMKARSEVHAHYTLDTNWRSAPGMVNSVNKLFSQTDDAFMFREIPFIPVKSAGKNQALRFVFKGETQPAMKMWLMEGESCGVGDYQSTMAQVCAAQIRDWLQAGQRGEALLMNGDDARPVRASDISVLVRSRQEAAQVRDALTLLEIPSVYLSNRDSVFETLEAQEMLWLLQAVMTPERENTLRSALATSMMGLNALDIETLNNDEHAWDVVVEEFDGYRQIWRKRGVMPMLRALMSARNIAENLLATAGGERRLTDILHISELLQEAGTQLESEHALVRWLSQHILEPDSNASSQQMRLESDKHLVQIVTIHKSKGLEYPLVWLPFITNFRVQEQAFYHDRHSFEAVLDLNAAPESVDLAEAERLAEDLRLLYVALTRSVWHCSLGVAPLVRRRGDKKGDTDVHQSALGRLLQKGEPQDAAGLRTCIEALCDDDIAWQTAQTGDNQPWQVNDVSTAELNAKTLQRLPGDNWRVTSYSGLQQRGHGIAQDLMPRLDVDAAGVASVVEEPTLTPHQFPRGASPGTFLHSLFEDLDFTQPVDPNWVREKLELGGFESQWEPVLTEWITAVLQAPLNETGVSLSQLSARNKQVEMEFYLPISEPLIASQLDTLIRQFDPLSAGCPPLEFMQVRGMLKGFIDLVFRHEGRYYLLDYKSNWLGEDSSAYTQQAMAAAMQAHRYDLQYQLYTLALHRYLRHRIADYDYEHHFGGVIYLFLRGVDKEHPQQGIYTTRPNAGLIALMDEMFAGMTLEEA

[5] = Counterscreen for AddAB inhibitors: absorbance-based bacterial cell-based high throughput dose response assay for inhibitors of bacterial viability. [Related pubchem assays (depositor defined):AID435030, AID449728, AID449731, AID488942, AID488955, AID488956]; type: functional

Sequence of Tyrosine-protein kinase BTK (Q06187 whole entry): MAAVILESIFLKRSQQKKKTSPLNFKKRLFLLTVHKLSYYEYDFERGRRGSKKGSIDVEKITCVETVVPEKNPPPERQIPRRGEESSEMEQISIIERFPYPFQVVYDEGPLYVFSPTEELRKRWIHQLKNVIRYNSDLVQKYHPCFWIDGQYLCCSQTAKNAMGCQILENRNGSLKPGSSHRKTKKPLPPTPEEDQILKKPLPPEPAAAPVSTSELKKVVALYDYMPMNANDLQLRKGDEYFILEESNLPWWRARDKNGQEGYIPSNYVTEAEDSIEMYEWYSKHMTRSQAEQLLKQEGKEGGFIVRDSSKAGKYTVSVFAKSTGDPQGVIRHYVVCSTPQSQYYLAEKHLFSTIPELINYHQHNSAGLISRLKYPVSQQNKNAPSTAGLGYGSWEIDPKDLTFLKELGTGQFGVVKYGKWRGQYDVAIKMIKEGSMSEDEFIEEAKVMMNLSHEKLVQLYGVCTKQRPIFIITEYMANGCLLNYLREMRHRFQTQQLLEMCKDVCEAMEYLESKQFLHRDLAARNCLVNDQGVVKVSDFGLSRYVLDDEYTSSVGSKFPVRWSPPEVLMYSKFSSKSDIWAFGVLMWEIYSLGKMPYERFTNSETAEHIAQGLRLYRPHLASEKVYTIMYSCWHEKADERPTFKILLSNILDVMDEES

Row | Ki [1] | SMILES | EC50 [2] | EC50 [3] | IC50 [4] | IC50 [5]
1 | > 3.98 µM (inactive) | Clc1cc(-c2c[nH]c3ncccc23)nc(NC2CCCCC2)n1 |  |  |  | 
2 |  | NS(=O)(=O)c1ccc(NC2=CC(=O)C(=O)c3ccccc32)cc1 | 8.45 µM (active) |  |  | 
3 |  | O=C(N/N=C/c1ccc(O)cc1O)c1ccc(CN2C(=O)c3cccc4cccc2c34)cc1 |  | 0.384 µM (active) | > 119 µM (inactive) | > 119 µM (inactive)
4 |  | CCC(=O)NC(c1ccccc1OC)c1ccc2cccnc2c1O (stereo not drawn) |  | 1.48 µM (active) | > 119 µM (inactive) | > 119 µM (inactive)
